According to patent US11478433B2, “Nanomaterials with enhanced drug delivery efficiency” (Yale University, priority 2017, dated 2022):
Blank lines part the entries; values can stand above or below the compound they belong to.

What was measured:
[1] = in vivo, cited from earlier work
[2] = tested on: human breast cancer MDA-MB-231 cells; assay: Toxicity on breast cancer cells in vitro; format: cell-based
Procedure: FIG. 7 is a line graph showing the percentage of growth (%) of human breast cancer MDA-MB-231 cells over different concentrations (μg/mL) of different samples: PTX, DTA SNPs (denoted in this graph as SNPs), PTX-encapsulated DTA SNPs (denoted as PTX-SNPs).
Human breast adenocarcinoma cell line, MDA-MB-231 cells, were purchased from American Type Culture Collection (ATCC, Rockville, Md., USA). Cells were grown in DMEM medium (Invitrogen) supplemented with 10% fetal bovine serum (FBS, Invitrogen), 100 units/mL penicillin, and 100 µg/mL streptomycin (Invitrogen) in a 37° C. incubator containing 5% CO2.

MDA-MB-231 tumors = assay: Oral treatment of mice bearing MDA-MB-231 tumors; format: in vivo; settings: twice a week
Procedure: The therapeutic benefit of PTX-loaded DTX SNPs was evaluated for treatment of […]. Mice bearing MDA-MB-231 tumors of ˜50 mm^3 size were treated twice a week with orally injected saline (as a control), empty DTA SNPs, free PTX, or PTX-loaded DTX SNPs (denoted as PTX-SNPs). Tumor volumes were measured three times a week. Mice were euthanized when tumor volume reached ˜1000 mm^3, at which point the tumors were excised and fixed in formalin for immunohistochemistry. Serial sections were obtained and stained with TUNEL for analysis of cellular apoptosis. The growth curve was plotted using the mean of the tumor volumes for each treatment group, at each time point.

[3] = tested on: MDA-MB-231 flank tumor model; assay: Intravenous treatment of flank tumor model with PTX-loaded OA SNPs; format: in vivo; settings: over 30 days following treatment
Procedure: Next, drug delivery via encapsulation in OA SNPs was assayed in treating the flank tumor model.

[4] = Penetration through GI tract after oral gavage (IVIS, confocal microscopy)
Procedure: DTA SNPs encapsulating a near-infrared fluorescent dye, IR780, were prepared and administered to mice via oral gavage. After one hour, the GI tract was isolated, extensively washed, and imaged by IVIS®.

Compound: GLP-1
half-life in the circulatory system [1]: < 2 min

Compound: CC(=O)O[C@H]1C(=O)[C@@]2(C)[C@H]([C@H](OC(=O)c3ccccc3)[C@]3(O)C[C@H](OC(=O)[C@H](O)[C@@H](NC(=O)c4ccccc4)c4ccccc4)C(C)=C1C3(C)C)[C@]1(OC(C)=O)CO[C@@H]1C[C@@H]2O [PTX, paclitaxel]
toxicity on MDA-MB-231 cells [2]: comparable toxicity
reduction of tumor volumes compared to saline control (MDA-MB-231 tumors): 21%
tumor volume / tumor growth [3]: grew substantially
oral bioavailability ([1]; po): less than 2%

Compound: C[C@@H]1CC[C@H]2[C@@H](C)C(=O)O[C@@H]3O[C@@]4(C)CC[C@@H]1[C@]32OO4 [Artemisinin, artemisinin]
bioavailability [1]: less than 10%

location in GI tract ([4]; one hour after oral gavage, IR780, IVIS imaging): located mostly in the stomach
Compound: CCCN1/C(=C/C=C2\CCCC(/C=C/C3=[N+](CCC)c4ccccc4C3(C)C)=C2Cl)C(C)(C)c2ccccc21.[I-] [IR780]

fluorescence in intestinal villi ([4]; oral administration, confocal microscopy): limited fluorescence
Compound: CCN(CC)c1ccc2c(-c3ccccc3C(=O)O)c3ccc(=[N+](CC)CC)cc-3oc2c1.[Cl-] [rhodamine B]
